Measurements from patent US20250352554A1 (Neurelis, Inc., priority 2024, published 2025).
Read-outs that look alike come from different tables or passages of the source.

Conditions: saturated solution

Measured: Appearance

Cc1cc2c(s1)Nc1ccccc1N=C2N1CCN(C)CC1 [olanzapine, 2-methyl-4-(4-methyl-1-piperazinyl)-10H-thieno[2,3-b][1,5]benzodiazepine]
Clear amber solution: 20% Dimethylacetamide/80% PEG 200 | 40% Dimethylacetamide/60% PEG 200 | 100% PEG 200
